{"source": "patent US20240374655A1", "about": "“INTESTINAL MICROBIOTA AND GVHD” (Memorial Sloan-Kettering Cancer Center, priority 2014, published 2024)", "key": {"[1]": {"test_system": "intestinal microbiota (Clostridiales, Enterococcus)", "test": "Flora composition (16S rRNA sequencing of stool) after antibiotic treatment of healthy mice", "assay_type": "in vivo, C57BL/6 mice", "protocol": "(§1) FIGS. 16A-16J Imipenem treatment, compared to aztreonam treatment, suppresses anaerobic commensals and elevates GVHD severity in mice. (A) Flora composition analysis using 16S rRNA sequencing prior to and after treatment with the indicated antibiotics in healthy C57BL/6 mice. Mice were treated with subcutaneous (SC) injections of each antibiotic twice a day for two days (500 mg/kg for pip/tazo and 100 mg/kg for others) and stool samples were collected the following day. Values represent mean±SEM (n=3-4). *, P<0.05; **, P<0.01; ****, P<0.0001. Data are representative of two independent experiments. (B to J) Lethally irradiated 129S1 recipients were transplanted with MHC matched C57BL/6 T-cell depleted bone marrow (TCD-BM) cells and 1×10^6 C57BL/6 T cells. Control mice received TCD-BM only. Recipients were treated with imipenem or aztreonam (100 mg/kg, SC, 3 times a week from day 10 to day 24 following allo-HSCT). (B) Comparison of overall survival, with combined data from three independent experiments (n=15-43). ****, P<0.0001. (C) Mice with GVHD treated with antibiotics were sacrificed on day 21 and GVHD histology scores in target organs were quantified by a blinded pathologist. Data are combined from three independent experiments (n=5-20). *, P<0.05. (D) Stool samples obtained from mice treated with imipenem or aztreonam similarly to those in B were collected on day 21 and analyzed by 16S rRNA gene sequencing, followed by principal coordinate analysis of weighted and normalized UniFrac distances. (E and F) Differential taxonomic abundance between aztreonam treated and imipenem treated recipients was analyzed by (E) linear discriminate analysis coupled with effect size measurements (LEfSe) and (F) by LEfSe projected as a cladogram. Data are representative from more than five independent experiments in D to F. (G and H) Comparisons of bacterial abundance at the phylogenetic levels of (G) order, and (H) genus are shown. Data are combined from 6 independent experiments (n=32-36). ***, P<0.001. (I) Stool samples collected from mice with GVHD treated with antibiotics were collected on day 21, and evaluated by metagenomic shotgun sequence analysis, comparison of bacterial species abundance determined by taxonomy. Numbers 1 through 6 along the x-axis represent the individual subjects. (J) Principal component analysis of quantification of sequence reads from KEGG gene orthologs comparing samples from mice treated with aztreonam and imipenem.\nTo further explore causality and mechanisms of the effects of antibiotics with anaerobic activity on GVHD, we turned to experiments in mice. […] Mice were treated by subcutaneous (SC) injections of each antibiotic twice a day for two days (500 mg/kg for pip/tazo and 100 mg/kg for others) and stool samples were collected, followed by 16S rRNA gene amplification and sequence analysis."}, "[2]": {"conditions": "metronidazole added to ciprofloxacin; cited from earlier work"}, "Clostridiales": {"test_system": "Clostridiales", "test": "Change in Clostridiales abundance in paired stool samples of allo-HSCT patients before and after starting antibiotics", "assay_type": "in vivo, human", "conditions": "before vs after starting the antibiotic; compared to aztreonam", "from_the_text": "(§2) (A) A retrospective cohort was identified of 283 adult patients who received non-T cell depleted allo-HSCT at our center from 1994 to 2013 and received antibiotics for neutropenic fever. Patients were stratified by exposure to antibiotics with significant activity against anaerobes. Outcomes indicated were depicted by Kaplan-Meier plots and curves compared by the logrank test. (B to G) Six representative clinical cases with time courses depicted of fecal microbiota composition and administration of antibiotic treatments during the course of allo-HSCT. […] (H) Change in abundance of Clostridiales in paired fecal samples from patients undergoing allo-HSCT collected prior to and following treatment with the indicated antibiotics.\nFor each stool specimen, DNA was purified using a phenol-chloroform extraction technique with mechanical disruption (bead-beating) based on a previously described protocol (60). Samples were analyzed using the 454 GS FLX Titanium platform to sequence the V1-V3 region of the bacterial 16S rRNA gene or were alternatively analyzed using the Illumina MiSeq platform to sequence the V4-V5 region of the 16S rRNA gene. Sequence data were compiled and processed using mothur version 1.34 (61), screened and filtered for quality (62). Operational taxonomic units (OTUs) were classified to the species level (63) using a modified form of the Greengenes reference database (64). Principal component analysis was performed upon a weighted and normalized Unifrac (65) distance matrix of OTU abundance in R software. Data from this study has been stored in the NCBI Sequence Read Archive (see url: www.ncbi.nlm.nih.gov/sra).\nHSCT patients were on intestinal bacterial composition. In 2009, our center began to prospectively collect weekly stool samples from patients undergoing allo-HSCT. From this specimen bank, we identified paired stool samples collected from patients prior to as well as following initiation of specific antibiotics during the course of allo-HSCT. […]"}, "[3]": {"test": "Administration of SCFA to mitigate murine GVHD (preliminary experiments)", "assay_type": "in vivo, mice", "conditions": "via drinking water (butyrate also via enema); data not shown", "protocol": "Preliminary experiments were done to test the impact of administration of SCFA on murine GVHD. […] Sodium acetate (150 mM) will be delivered via the drinking water of mice beginning 2 weeks prior to BMT. Mice will then be irradiated and transplanted with continued supplementation of sodium acetate. Outcomes that will be evaluated in mice include GVHD clinical scores, survival, and day 14 and 28 tissue pathology. Kaplan-Meier curves will display the overall survival for the two groups. In addition, the area under the curve (AUC) will summarize the weekly total GVHD score from the time of infusion to week 13 for each mouse. Mice will be euthanized to evaluate for pathological evidence of GVHD, as well as to quantify and characterize large intestinal Tregs and alloreactive effector T cells by flow cytometry on days 14 and 28."}, "[4]": {"test": "Antibiotic treatment in MHC-matched minor antigen-mismatched allo-HSCT GVHD model (C57BL/6 into 129S1)", "assay_type": "in vivo", "protocol": "as §1, with “Data are representative from more than five independent experiments in D to F. (G and H) Comparisons of bacterial abundance at the phylogenetic levels of (G) order, and (H) genus are shown. Data are combined from 6 independent experiments (n=32-36). ***, P<0.001.” left out, “Numbers 1 through 6 along the x-axis represent the individual subjects.” left out\n(A to G) Lethally irradiated 129S1 recipients were transplanted with C57BL/6 TCD-BM cells with 1×10^6 C57BL/6 T cells. […] (A) Colonic lamina propria-infiltrating leukocytes from recipients were analyzed on day 21 by flow cytometry. […] (C) Lamina propria-infiltrating leukocytes from the colon on day 21 were enriched for CD11b and CD11e simultaneously using a mixture of magnetic beads and IL-23 transcripts were quantified by real time PCR. […] (D) Immunofluorescent staining was used to quantify pSTAT3, CD3, and DAPI positive cells in colonic tissue collected on day 21. […]"}, "[5]": {"test": "Retrospective cohort of 283 allo-HSCT patients treated for neutropenic fever: GVHD-related mortality by antibiotic type", "assay_type": "in vivo, human", "conditions": "compared to antibiotics with reduced activity against anaerobes (aztreonam, cefepime)", "from_the_text": "as §2\nIn one study, subjects analyzed retrospectively for impact of antibiotics on clinical outcomes consisted of 283 adult patients undergoing all-HSCT at Memorial Sloan Kettering Cancer Center (MSKCC) from 1994 to 2013. […]\nGVHD was diagnosed clinically, confirmed pathologically by biopsy whenever possible, and classified according to historical consensus criteria as described previously (see Rowlings P A, Przepiorka D, Klein J P, et al. IBMTR Severity Index for grading acute graft-versus host disease: retrospective comparison with Glucksberg grade. Br J Haematol. 1997). […] Disease risk was determined according to the ASBMT RFI 2014 Disease Classification. […]"}, "[6]": {"conditions": "100 mg/kg SC twice a day for two days"}}, "note": "Entries after “also recorded” stand apart in the source; their conditions may differ."}
{"compound": "Cc1ncc([N+](=O)[O-])n1CCO", "note": "[metronidazole]", "values": [{"measurement": "Abundance of Clostridiales in stool", "setting": "[1]; [6]", "result": "significantly reduced"}, {"measurement": "Abundance of Enterococcus in stool", "setting": "[1]; [6]", "result": "increased"}, {"measurement": "Acute GVHD", "setting": "[2]", "result": "significant reduction in acute GVHD"}, {"measurement": "Change in Clostridiales abundance in stool of patients", "setting": "Clostridiales", "result": "significantly lower abundances of Clostridiales"}]}
{"compound": "CC(=O)O", "note": "[acetate]", "values": [{"measurement": "Benefit on murine GVHD", "setting": "[3]", "result": "notable benefit"}]}
{"compound": "C[C@@H](O)[C@H]1C(=O)N2C(C(=O)O)=C(SCCN=CN)C[C@H]12", "note": "[imipenem, imipenem-cilastatin]", "values": [{"measurement": "Mortality / overall survival", "setting": "[4]; 100 mg/kg SC 3 times a week from day 10, compared to aztreonam, within 2 weeks of starting treatment", "result": "significantly increased mortality; also recorded: aggravated mortality"}, {"measurement": "Bacteria past the colonic epithelial barrier", "setting": "[4]; mouse, in vivo", "result": "dissemination of bacteria past the colonic epithelial barrier"}, {"measurement": "GVHD pathology in skin, liver and small intestine", "setting": "[4]; mouse, in vivo", "result": "no significant differences"}, {"measurement": "GVHD-related mortality", "setting": "[5]", "result": "increased GVHD-related mortality"}]}
{"compound": "piperacillin-tazobactam [pip/tazo]", "values": [{"measurement": "Amplifiable bacterial DNA in stool", "setting": "[1]; 500 mg/kg SC twice a day for two days", "result": "no amplifiable bacterial DNA"}, {"measurement": "Change in Clostridiales abundance in stool of patients", "setting": "Clostridiales", "result": "significantly lower abundances of Clostridiales; also recorded: more severe loss"}, {"measurement": "GVHD-related mortality", "setting": "[5]", "result": "increased GVHD-related mortality"}]}
